Experiments:
[1] = Storage stability: impurities/degradants by HPLC; assay type: physicochemical
Procedure: Particle size and globule size were likewise measured at the start of storage and at the one month or three month interval, respectively, according to USP 729. Impurities were also measured at the start of storage and at the one month or three month intervals, respectively. Viscosity was also measured at the start of storage and at the one month or three month intervals, respectively. Osmolality was also measured at the start of storage and at the one month or three month intervals, respectively, according to USP 785. Briefly, to measure betamethasone dipropionate and betamethasone content as well as impurities/degradants, HPLC was used. […] The 50 mL tubes were then removed from the heat and vortex mixed again for 30 seconds. If necessary, the tubes were returned to the water bath to prevent cooling. […] The tubes were then centrifuged for 30 minutes at 12,000 RPM and supernatant was transferred to a HPLC vial for analysis. The HPLC system was rinsed well with 50:50 acetonitrile:water to remove buffer salts after each run. […] HPLC was run using a Hypersil ODS 10×30 mm, 3 μm column as the Guard Column and a Hypersil ODS 3×150 mm, 3 μm column as the Analytical Column. The column temperature was maintained at 35° C. with a runtime of 45 minutes, a flow rate of 0.5 mL/minute, an injection volume of 3 μL, an autosampler temperature of 30° C., and using a 254 nm (UV absorbance) detector and collecting PDA from 200 nm to 400 nm for identification testing. […] Mobile Phase B was prepared as 88:12 methanol:acetonitrile. […] All mobile phase solutions were mixed well and degassed prior to use. […] A Working Standard Solution was prepared from 3.0 mL of the IS Stock Solution and 8.0 mL of the BD Stock in a 50 mL volumetric flask to which 150 mg of benzyl alcohol reference standard was added and diluent added to volume followed by mixing well. […] System suitability requirements included those in Table 38. The Ratio RT (RRT) in Table 39 can be calculated from the ratio of the sample retention time to the mean retention time of the bracketing standards.

[2] = Recovery of force-degraded MFM spiked into placebo cream and of active cream (0.1% MFM), HPLC; assay type: physicochemical
Procedure: MFM neat and degraded materials were spiked into placebo cream (lot #2020-11-01) to investigate potential partitioning effects and peak interferences and to compare spiked and active cream samples by the procedure in Table 50 with the exception that for acid, base and peroxide degradations, the additions of HCl, NaOH and peroxide were calculated accordingly.
Percent recovery of Force-Degraded Materials Spiked into Placebo is provided in Table 51 below while recovery of active cream formulation (0.1% MFM) is provided in Table 52 below.

[3] = stored at 25° C./60% RH, 1 Month, Mean
[4] = stored at 25° C./60% RH, 1 Month, Prep #1
[5] = stored at 25° C./60% RH, 1 Month, Prep #2
[6] = stored at 25° C./60% RH, 3 Month, Mean
[7] = stored at 25° C./60% RH, 3 Month, Prep #1
[8] = stored at 25° C./60% RH, 3 Month, Prep #2
[9] = stored at 25° C./60% RH, Initial, Mean
[10] = stored at 25° C./60% RH, Initial, Prep #2
[11] = stored at 30° C./65% RH, 1 Month, Mean
[12] = stored at 30° C./65% RH, 1 Month, Prep #1
[13] = stored at 30° C./65% RH, 1 Month, Prep #2
[14] = stored at 30° C./65% RH, 3 Month, Mean
[15] = stored at 30° C./65% RH, 3 Month, Prep #1
[16] = stored at 30° C./65% RH, 3 Month, Prep #2
[17] = stored at 30° C./65% RH, Initial, Mean
[18] = stored at 30° C./65% RH, Initial, Prep #2
[19] = stored at 40° C./75% RH, 1 Month, Mean
[20] = stored at 40° C./75% RH, 1 Month, Prep #1
[21] = stored at 40° C./75% RH, 1 Month, Prep #2
[22] = stored at 40° C./75% RH, 3 Month, Mean
[23] = stored at 40° C./75% RH, 3 Month, Prep #1
[24] = stored at 40° C./75% RH, 3 Month, Prep #2
[25] = stored at 40° C./75% RH, Initial, Mean
[26] = stored at 40° C./75% RH, Initial, Prep #2

Compound | Impurity (% of related substances) in Betamethasone Dipropionate Cream Formulation [1, 3] | Impurity (% of related substances) in Betamethasone Dipropionate Cream Formulation [1, 4] | Impurity (% of related substances) in Betamethasone Dipropionate Cream Formulation [1, 5] | Impurity (% of related substances) in Betamethasone Dipropionate Cream Formulation [1, 6] | Impurity (% of related substances) in Betamethasone Dipropionate Cream Formulation [1, 7] | Impurity (% of related substances) in Betamethasone Dipropionate Cream Formulation [1, 8] | Impurity (% of related substances) in Betamethasone Dipropionate Cream Formulation [1, 9] | Impurity (% of related substances) in Betamethasone Dipropionate Cream Formulation [1, 10] | Impurity (% of related substances) in Betamethasone Dipropionate Cream Formulation [1, 11] | Impurity (% of related substances) in Betamethasone Dipropionate Cream Formulation [1, 12] | Impurity (% of related substances) in Betamethasone Dipropionate Cream Formulation [1, 13] | Impurity (% of related substances) in Betamethasone Dipropionate Cream Formulation [1, 14] | Impurity (% of related substances) in Betamethasone Dipropionate Cream Formulation [1, 15] | Impurity (% of related substances) in Betamethasone Dipropionate Cream Formulation [1, 16] | Impurity (% of related substances) in Betamethasone Dipropionate Cream Formulation [1, 17] | Impurity (% of related substances) in Betamethasone Dipropionate Cream Formulation [1, 18] | Impurity (% of related substances) in Betamethasone Dipropionate Cream Formulation [1, 19] | Impurity (% of related substances) in Betamethasone Dipropionate Cream Formulation [1, 20] | Impurity (% of related substances) in Betamethasone Dipropionate Cream Formulation [1, 21] | Impurity (% of related substances) in Betamethasone Dipropionate Cream Formulation [1, 22] | further results
CCC(=O)OC1(C(=O)CO)C(C)CC2C3CCC4=CC(=O)C=CC4(C)C3(F)C(O)CC21C (stereo not drawn) [Lot 5] | 0.34% | 0.31% | 0.37% | 0.49% | 0.43% | 0.54% | 0.18% | 0.20% | 0.43% | 0.38% | 0.48% | 0.73% | 0.66% | 0.79% | 0.18% | 0.20% | 0.64% | 0.59% | 0.68% | 0.93% | Impurity (% of related substances) in Betamethasone Dipropionate Cream Formulation ([1]; stored at 25° C./60% RH, Initial, Prep #1): 0.16%; Impurity (% of related substances) in Betamethasone Dipropionate Cream Formulation ([1]; stored at 30° C./65% RH, Initial, Prep #1): 0.16%; Impurity (% of related substances) in Betamethasone Dipropionate Cream Formulation [1, 23]: 0.86%; Impurity (% of related substances) in Betamethasone Dipropionate Cream Formulation [1, 24]: 0.99%; Impurity (% of related substances) in Betamethasone Dipropionate Cream Formulation [1, 25]: 0.18%; Impurity (% of related substances) in Betamethasone Dipropionate Cream Formulation ([1]; stored at 40° C./75% RH, Initial, Prep #1): 0.16%; Impurity (% of related substances) in Betamethasone Dipropionate Cream Formulation [1, 26]: 0.20%
CCC(=O)OCC(=O)C1(O)C(C)CC2C3CCC4=CC(=O)C=CC4(C)C3(F)C(O)CC21C (stereo not drawn) [Lot 4] | 0.09% | 0.08% | 0.10% | 0.22% | 0.19% | 0.25% | – | – | 0.15% | 0.13% | 0.17% | 0.50% | 0.44% | 0.56% | – | – | 0.53% | 0.48% | 0.58% | 1.99% | Impurity (% of related substances) in Betamethasone Dipropionate Cream Formulation [1, 23]: 1.86%; Impurity (% of related substances) in Betamethasone Dipropionate Cream Formulation [1, 24]: 2.12%
CCC(=O)OCC(=O)[C@@]1(OC(=O)CC)[C@@H](C)C[C@H]2[C@@H]3CC(Br)C4=CC(=O)C=C[C@]4(C)[C@@]3(F)[C@@H](O)C[C@@]21C (stereo partly drawn) [Lot 9] | – | – | – | – | – | – | 0.12% | 0.12% | – | – | – | – | – | – | 0.12% | 0.12% | – | – | – | – | Impurity (% of related substances) in Betamethasone Dipropionate Cream Formulation [1, 25]: 0.12%; Impurity (% of related substances) in Betamethasone Dipropionate Cream Formulation [1, 26]: 0.12%
C[C@@H]1C[C@H]2[C@@H]3CCC4=CC(=O)C=C[C@]4(C)[C@@]3(Cl)[C@@H](O)C[C@]2(C)[C@@]1(OC(=O)c1ccco1)C(=O)CCl.O [Mometasone Furoate Momohydrate] | – | – | – | – | – | – | – | – | – | – | – | – | – | – | – | – | – | – | – | – | Difference with Placebo (neat vs spiked recovery) ([2]; 0.1N HC1 (1 hour)): 5.23%; Difference with Placebo (neat vs spiked recovery) ([2]; 0.1N NaOH (1 hour)): 0.13%; Difference with Placebo (neat vs spiked recovery) ([2]; 3% H2O2 (1 hour)): 5.20%; Difference with Placebo (neat vs spiked recovery) ([2]; 60° C. (5 days)): 4.96%; Difference with Placebo (neat vs spiked recovery) ([2]; Control (neat MFM)): 5.87%; Difference with Placebo (neat vs spiked recovery) ([2]; White light (5 days)): 5.29%
